For one data set, the system named is RPMI-8226. Put plainly: Propidium iodide exclusion / flow cytometry cytotoxicity. The class given is cell-based, human. Conditions: for mode of induced cell death: annexin V, sub-G1 DNA content, mitochondrial membrane potential. On the procedure:
Cell survival was assayed by exclusion of propidium iodide (PI; 10 μg/ml) by unfixed cells. Annexin V-FITC (Pharmingen) or 3, 3′-dihexyloxacarbocyanine iodide (DiOC6(3); Molecular Probes) staining was analyzed together with PI to discriminate early apoptotic cells. Apoptotic cells were also measured as sub-G1 events among ethanol-fixed cells stained with 10 μg/ml PI. All cell samples were analyzed using a benchtop FACSCalibur™ (Becton Dickinson, San Jose, Calif.). Flow data were analyzed using MultiCycle AV software (Phoenix Flow Systems). For intracellular pH measurements, cell pellets were washed once and resuspended in 2 ml of HEPES-buffered medium (no phenol red and no serum). Carboxy-SNARF-1-AM (Molecular Probes, 1 mM stock in DMSO, stored at −20° C.) was added to a final concentration of 10 μM, and the cells were incubated for 30 min at 37° C. Following incubation with SNARF, cells were sedimented and the pellets were held on ice. Immediately before analysis, pellets were resuspended in […] (HBSS; experimental buffer) or high-[K+] buffer containing nigericin (calibration samples).
Background: A flow cytometer gives signals particle by particle.

In data set [1] the test system is TAMH hepatocyte cell line. Briefly: O2 consumption with a Clark electrode. In kind it is cell-based, murine. The protocol: Respiratory rates of both cell lines were maintained through repeated additions of 10 μM 2-OMeA, to a final concentration of 90 μM. […] Real-time glucose consumption and lactate production by TAMH cells grown on microcarrier beads was monitored using a novel microsequential injection-lab on valve (μSI-LOV) system (Schulz et al., Analyst 127:1293-1298, 2002). […] Since 2-OMeA has no effect on cellular respiration at these concentrations, 2-OMeA induced aerobic glycolysis in TAMH cells. The glycolytic response to 2-OMeA was proportional to cellular BCl-xL protein expression.

Data set [2] has as its system plasma proteins. Put plainly: Binding to plasma proteins (ultrafiltration). Conditions: presence of NaF+EDTA, 1000 ng/ml. The class given is in vitro ADME, rat.
For data set [3], the system named is plasma proteins. Briefly: Binding to plasma proteins (ultrafiltration). The class given is in vitro ADME, mouse. Conditions: presence of NaF+EDTA, 1000 ng/ml. The protocol:
(§1) Solutions of 2-OMe antimycin A3 were diluted with plasma (dog or human) containing NaF+EDTA to final concentrations of 1.0 or 0.2 μg/ml. Controls were diluted with water to the same final concentrations. These preparations were incubated at 37° C. for 20 min, at which time portions were taken and placed in the sample reservoirs of Amicon Centrifree® ultrafiltration systems (Millipore Co., Bedford, Mass.). At 37° C., the filter systems were centrifuged until the reservoirs were dry. From each filtrate, portions were taken for analysis by HPLC. The amounts present were designated as “free drug” (F). The concentrations of the unfiltered solutions were also determined by triplicate analyses. This amount represented the “total drug” concentration (T). The percentage of 2-OMe antimycin A3 bound to plasma proteins was calculated by the following formula: % bound=((T−F)/T)×100

Data set [4] concerns plasma proteins. Briefly: Binding to plasma proteins (ultrafiltration). The class given is in vitro ADME, dog. Conditions: presence of NaF+EDTA, 1000 ng/ml. On the procedure: as §1
Similar experiments were performed for 2-OMe antimycin A3 in dog or rat plasma in the absence of NaF/EDTA.

The test system of data set [5] is TABX2S cells (over-expressing Bcl-xL). Put plainly: cells. The text has this: Briefly, a DNA fragment encoding the full-length mouse BCl-xL cDNA was isolated from the plasmid PBS.BCL-xL (Tzung et al., Am. J. Path. 150:1985-1995, 1997, incorporated herein by reference in its entirety) by digestion with the restriction endonuclease EcoRI. This EcoRI fragment was cloned into the EcoRI site of the mammalian expression vector pSFFV (Fuhlbrigge et al., Proc. Nat. Acad. Sci. USA 85:5649-5653, 1988) in both sense and antisense orientations, to form expression plasmids pSFFV.Bcl-xL(sense) or pSFFV.Bcl-xL(antisense), respectively. The tumorigenic murine hepatocyte cell line TAMH was transfected by lipofection (Lipofectamine, Life Technologies, Rockville, Md., according to the manufacturer's recommendations) with the plasmids pSFFV.neo (the control), pSFFV.Bcl-xL(sense) or pSFFV.Bcl-xL(antisense). […] Transfectants were selected for the acquisition of neomycin resistance by growing cells in the presence of 750 μg/ml of G418. Bulk transfectants were cloned by limiting dilution and individual clones were screened by immunoblot analysis to determine the level of BCl-xL protein expression as described below.
Selected transfectants were then tested for whole cell sensitivity to several apoptotic agents. Transfected cells were cultured to reach approximately 80% confluency prior to plating an equal number of cells from selected clones on 12-well tissue culture plates. The transplanted cells were treated with the following apoptotic agents: 5 μM doxorubicin for 48 hours; 5 μM cisplatin for 48 hours; or with 200 U/ml tumor necrosis factor (TNF) plus 1 μg/ml actinomycin D for 18 hours. Cell viability was determined by trypan blue dye exclusion. The percentage of viable cells was calculated by the number of viable cells (treated with a particular apoptogenic agent) divided by the number in the control group (untreated).
TABX2S cells and TABX1A cells were also examined for the effects of various mitochondrial inhibitors. […] Azide was diluted from an aqueous stock solution. […] Controls received an equivalent concentration of diluent. At various time points after drug treatment, cells were trypsinized, and cell viability was determined by trypan blue dye exclusion. The number of viable cells were counted and normalized to control group (i.e., % control=number of viable cells (treated group)/number of viable cells (control group)×100).

Data set [6] deals with mitochondria from TABX2S cells (high levels of Bcl-xL). Briefly: JC-1 membrane potential of isolated mitochondria. More on the design: species or system murine. The protocol: Isolated mitochondria were loaded with JC-1 prior to treatment, and mitochondrial labeling was determined using FACS. […] Antimycin A-treated mitochondria with high levels of Bcl-xL had lower levels of JC-1 staining than parallel samples treated with CCCP. Uncoupled mitochondria still retain a significant Donnan potential because of trapped anionic species and it is likely that antimycin-induced PT and/or swelling of mitochondria led to a further reduction of this residual potential.
As observed for the parent compound, antimycin A3, mitochondria with normal levels of BCl-xL expression were not affected by the 2-methoxy analog.

As for 2-methoxy antimycin A [2-OMeA], the “cell killing measured as PI uptake, compared with antimycin A” value with RPMI-8226 (5 and 20 μg/ml, three cell lines) is reported as “similar”. Further, in the data set on RPMI-8226, the “mode of induced cell death” value is reported as “apoptosis”. The respiratory rate entry in data set [1] (repeated additions of 10 μM to a final concentration of 90 μM) is listed as “maintained”.

As to `CCCCCC[C@H]1C(=O)O[C@H](C)[C@H](NC(=O)c2cccc(NC=O)c2OC)C(=O)O[C@@H](C)[C@@H]1OC(=O)CC(C)C` [2-OMeA1, 2-methoxy antimycin A1], the “Protein binding, Rat” value in the data set with plasma proteins [2] is recorded as above 99.9%. Moreover, the “Protein binding, Mouse” value with plasma proteins [3] amounted to 99.0%. For the same molecule, the “Protein binding, Dog” value in the data set with plasma proteins [4] was found to be 99.8%.

On to `CCCC[C@H]1C(=O)OC(C)[C@H](NC(=O)c2cccc(NC=O)c2OC)C(=O)O[C@@H](C)C1OC(=O)CC(C)C` (stereo partly drawn) [2-OMeA3, Antimycin A3 methyl ether], for which, in the data set with plasma proteins [2], the “Protein binding, Rat” value is given as 99.8%. Moreover, in data set [5] (TABX2S vs TAMH.neo and TABX1A), the “cytotoxicity for cells over-expressing Bcl-xL vs control cells” value is recorded as “selective cytotoxicity”. Also, the “Protein binding, Mouse” value in the data set with plasma proteins [3] is given as 99.1%. Moreover, in data set [6] (2 μg/ml), the “mitochondrial depolarization (JC-1)” value is on record as “strongly depolarized”. Moreover, the “Protein binding, Dog” value in the data set with plasma proteins [4] was 99.3%.

antimycin A: in the data set on RPMI-8226, the “time of treatment at which cell death was demonstrated” value was at most 8 h and the “mode of induced cell death” value is “apoptosis”. In addition, in the data set on RPMI-8226 (5 to about 20 μg/ml), the “sensitivity (PI exclusion)” value is recorded as “sensitive”. In addition, in data set [5] (2 μg/ml, supplemented with fructose, six hours), the survival worked out at 33%. The “time until cell death readily apparent” value in data set [5] (after addition to the cell culture) is at most 2 h. Also, in data set [6] (vs control mitochondria (TABX1A)), the “decrease in ΔΨm (JC-1)” value is “much greater decrease in ΔΨm”. The molecule further had a dampening of respiration in data set [1] (10 μM) above 90%.

(Values after patent US20050239873A1 (priority 1999, published 2005).)
